Measured values as given in patent US20110263542A1, “METHODS TO TREAT PAIN USING AN ALPHA-2 ADRENERGIC AGONIST AND AN ENDOTHELIN ANTAGONIST” (ENGOGENX, priority 2008, published 2011).
“Also recorded” adds a separate entry of the source. Counter-ions that a name gives are not always drawn. Like-named read-outs stand apart in the source and are kept apart here.

Columns and labels:
[1] = test system: rats; conditions: for effect of antagonist on clonidine induced potentiation of morphine analgesia / effect of antagonist on clonidine induced potentiation of oxycodone analgesia: idazoxan 2 mg/kg ip or yohimbine 2 mg/kg ip 15 min before clonidine 1 mg/kg ip; for effect of antagonist on clonidine induced potentiation of morphine analgesia: morphine 8 mg/kg sc; for analgesic effect of agent alone (in words): clonidine 1 mg/kg ip
[2] = test system: patients having coronary artery bypass graft surgery; conditions: cited from earlier work
[3] = cited from earlier work
[4] = cited from earlier work; remark: listed apart in the source
[5] = Body temperature in mice; format: in vivo; conditions: clonidine 0.3 mg/kg with 0.5% CMC or sulfisoxazole 250, 500 or 1000 mg/kg; after 3 hours; FIG. 6B
[6] = test system: patients undergoing cesarean delivery; conditions: epidural clonidine 75 μg; cited from earlier work
[7] = test system: patients, immediately after spinal fusion; conditions: cited from earlier work
[8] = test system: mice; experiment: Tail-flick latency (antinociception) in mice
Protocol: Animals: Male Swiss Webster mice weighing 25 to 30 g (Harlan, Indianapolis, IN) were used. The animals were housed five per cage in a room with controlled ambient temperature (23±1° C.), humidity (50±10%) and twelve-hour light/dark cycle (6.00 AM to 6.00 PM). Food and water were made available ad libitu Experiments were carried out after the animals had been acclimated to this environment for at least 4 days.
Statistics: All data values are presented as mean±SEM. ANOVA followed by post-hoc test (Bonferroni's Test) were used to test differences within and between groups. A level of P<0.05 was considered significant.
Application of theiinal stimulation (focused light) to the tail of an animal provoked withdrawal of the tail by a brief vigorous movement. The reaction time of this movement was recorded as tail-flick latency by using an analgesiometer. […] A cutoff time of 10 sec was used to prevent damage to the tail. Tail flick latency values were subtracted from the basal latency and the differential values were used to calculate the area under the curve (AUC).

COC(=O)[C@@H]1[C@H]2C[C@H]3c4[nH]c5ccccc5c4CCN3C[C@@H]2CC[C@@H]1O [Yohimbine, 17α-hydroxy-yohimban-16α-carboxylate hydrochloride]
effect of antagonist on clonidine induced potentiation of morphine analgesia ([1]; hydrochloride): Blocked | effect of antagonist on clonidine induced potentiation of oxycodone analgesia ([1]; oxycodone 4 mg/kg sc, hydrochloride): Blocked

CN1CC[C@]23c4c5ccc(O)c4O[C@H]2[C@@H](O)C=C[C@H]3[C@H]1C5.O=S(=O)(O)O [Morphine, 7,8-didehydro-4,5α-epoxy-17-methylmorphinan-3,6α-diol sulfate]
morphine dosage in the first 24 h, median (25th-75th percentiles) ([2]; i.v. PCA morphine group (control)): 37 (30.5-51) mg | morphine dosage in the first 24 h, median (25th-75th percentiles) ([2]; intrathecal morphine 4 microg/kg group, plus i.v. PCA morphine): 40.5 (15-61.5) mg

Cc1noc(NS(=O)(=O)c2cccc3c(N(C)C)cccc23)c1C [BMS182874, 5-(dimethylamino)-N-(3,4-dimethyl-5-isoxazolyl)-1-naphthalene sulfonamide]
analgesic effect of agent alone (in words) ([1]; BMS182874 50 μg icv): did not produce any analgesic effect

4-amino-N-(3,4-dimethyloxazol-5-yl)-benzenesulfonamide [Sulfisoxazole]
solubility (in words) [3]: highly soluble | concentration in the cerebrospinal fluid (in words) ([4]; average, relative to blood): about a third of blood concentration | excreted in urine by kidney ([4]; in 24 hours): 95% | binding to plasma proteins (in words) ([4]; in vivo): extensively bound to plasma proteins

c1ccc2c(c1)OCC(C1=NCCN1)O2 (centres unmarked) [Idazoxan, 2-(1,4-benzodioxan-2-yl)-2-imidazoline]
effect of antagonist on clonidine induced potentiation of morphine analgesia [1]: did not affect; also recorded: No effect | effect of antagonist on clonidine induced potentiation of oxycodone analgesia ([1]; oxycodone 4 mg/kg sc): Blocked

Clc1cccc(Cl)c1NC1=NCCN1 [Clonidine, N-(2,6-dichlorophenyl)-4,5-dihydro-1H-imidazol-2-amine]
body temperature, lowest value (from 37° C.) [5]: approximately 32 °C | effect on duration of analgesia produced by 2 mg of morphine [6]: doubled | change in mean arterial pressure ([7]; clonidine group at T11): −26+/−2% | mean arterial pressure ([7]; clonidine group): 74+/−2 mmHg | morphine requirement, dose for each patient ([7]; clonidine group, placebo 10.8+/−1.2): 3.8 ± 1 mg | pain score (visual analog scale 0-100 mm) after treatment ([7]; clonidine i.v. 5 micrograms/kg 1st h then 0.3 microgram/kg/h for 11 h, decreased from 42+/−5, mean+/−standard error): 26+/−3 mm | AUC0→240 min determined from tail flick latency ([8]; Example 3, FIG. 1B: morphine 4 mg/kg s.c., clonidine 2 mg/kg i.p. 30 min before morphine or vehicle, mean±SEM, N=6): 68.4±12.3 | AUC0→240 min of tail flick latency ([8]; Example 5 Study 2, FIG. 4: clonidine 2 mg/kg i.p., sulfisoxazole 1000 mg/kg oral, morphine 8 mg/kg s.c., mean±SEM, N=6): increase in AUC | tail flick latency (in words) ([8]; clonidine 0.3 mg/kg i.p. plus 0.5% CMC p.o., by 6 hours): approximately the level of vehicle treated animals | analgesic effect of agent alone (in words) ([1]; BMS182874 50 μg icv): produced analgesia; also recorded: significant | effect on morphine analgesia in rats treated with BMS182874 ([1]; clonidine 0.3 and 1.0 mg/kg ip, BMS182874 50 μg icv, morphine 4 mg/kg sc): increase in morphine analgesia | effect on oxycodone analgesia in rats treated with BMS182874 ([1]; clonidine 0.3 and 1.0 mg/kg ip, BMS182874 50 μg icv, oxycodone 4 mg/kg sc): increase in oxycodone analgesia
